Laboratory results as given in US20080132554A1, “CRYSTAL FORM OF 2-(3-FLUORO-4-HYDROXYPHENYL)-7-VINYL-1,3-BENZOXAZOL-5-OL” (WYETH, priority 2006, published 2008).

Assay: Conversion of the crystal form when suspended and stirred in solvent
Type: physicochemical
Conditions: room temperature, seven days
Text: The anhydrate crystal form (Form D) can be converted to other crystal forms under suitable conditions.

C=Cc1cc(O)cc2nc(-c3ccc(O)c(F)c3)oc12 [Form D, 2-(3-fluoro-4-hydroxyphenyl)-7-vinyl-1,3-benzoxazol-5-ol]
crystal form conversion after suspension and stirring (in acetone): another anhydrate crystal form is obtained | crystal form conversion after suspension and stirring (in ethanol): another anhydrate crystal form is obtained | crystal form conversion after suspension and stirring (in methanol): another anhydrate crystal form is obtained | crystal form conversion after suspension and stirring (in water): most of the anhydrate crystal form is converted to a hydrate crystal form
